The values that follow come from patent US9102648B1, “Bioavailable diacylhydrazine ligands for modulating the expression of exogenous genes via an ecdysone receptor complex” (Intrexon Corporation, priority 2003, dated 2015).

The series has as its target T1, Bombyx mori EcR (VP16 fusion, CVBE switch construct) (Bombyx mori, UniProt P49881).
T1 sequence (P49881 86-606): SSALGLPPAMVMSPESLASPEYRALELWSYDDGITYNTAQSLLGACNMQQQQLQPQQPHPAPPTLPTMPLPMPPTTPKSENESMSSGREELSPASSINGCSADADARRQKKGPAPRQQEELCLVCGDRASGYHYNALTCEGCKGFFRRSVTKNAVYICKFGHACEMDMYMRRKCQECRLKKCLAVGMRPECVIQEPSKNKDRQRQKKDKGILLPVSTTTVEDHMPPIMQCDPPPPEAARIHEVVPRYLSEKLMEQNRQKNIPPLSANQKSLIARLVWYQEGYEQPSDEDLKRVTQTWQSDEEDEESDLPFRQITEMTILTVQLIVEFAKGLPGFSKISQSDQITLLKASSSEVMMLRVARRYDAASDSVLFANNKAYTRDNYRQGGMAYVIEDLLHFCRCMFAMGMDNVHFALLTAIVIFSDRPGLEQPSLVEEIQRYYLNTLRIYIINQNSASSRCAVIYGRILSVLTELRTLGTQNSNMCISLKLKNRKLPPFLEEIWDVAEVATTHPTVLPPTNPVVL
T1 sequence (P19793 1-462 partner): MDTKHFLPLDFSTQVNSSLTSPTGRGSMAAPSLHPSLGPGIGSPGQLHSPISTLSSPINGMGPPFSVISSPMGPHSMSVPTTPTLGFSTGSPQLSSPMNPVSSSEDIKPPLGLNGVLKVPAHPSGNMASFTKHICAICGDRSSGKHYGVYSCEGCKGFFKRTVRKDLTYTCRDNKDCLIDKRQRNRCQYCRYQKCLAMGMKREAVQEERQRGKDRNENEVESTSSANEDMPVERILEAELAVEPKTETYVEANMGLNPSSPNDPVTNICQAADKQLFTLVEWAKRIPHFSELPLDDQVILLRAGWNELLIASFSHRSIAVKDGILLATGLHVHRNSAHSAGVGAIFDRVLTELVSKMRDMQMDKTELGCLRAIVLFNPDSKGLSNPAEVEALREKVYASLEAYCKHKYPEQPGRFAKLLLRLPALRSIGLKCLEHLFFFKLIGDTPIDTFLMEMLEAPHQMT
Kind of series: Z3 Assay (HEK-293 cells with CVBE and 6XEcRE LacZ, β-galactosidase reporter).

On to `Cc1cc(C)cc(C(=O)N(NC(=O)c2ccc3c(c2)CCCC3)C(C)(C)C)c1` [RG-101887], for which, under “3.3 uM ligand, ligand treated / DMSO treated cells, average of two wells”, the “Fold Induction, Z3 Assay, 3.3 uM” value is recorded as 1004. Further, the “Fold Induction, Z3 Assay, 33 uM” value (33 uM ligand, ligand treated / DMSO treated cells, average of two wells) worked out at 334. Besides, the “Z3 assay Rel Max FI” value (maximum fold induction at any concentration relative to that of GS-E ligand, HEK-293 Z3 cells) turned out to be 0.930. The EC50 (in general, the concentration needed to bring the measured effect to its halfway point) (read-out: Z3 assay EC50, HEK-293 Z3 cells, β-galactosidase reporter, average of two wells) is 257 nM.
